Results on 12 compounds are retold here after publication PMC8493801, “Exploring the Monoterpene Indole Alkaloid Scaffold for Reversing P-Glycoprotein-Mediated Multidrug Resistance in Cancer” (Pharmaceuticals, 2021).

In data set [1] the test system is sensitive L5178Y mouse T-lymphoma cells (PAR). As to the kind of experiment: MTT antiproliferative assay, sensitive cells. The class given is cell-based. The following applies: 72 h, mean ± SD. Here is the method: (§1) Non-cancer mouse embryonic fibroblasts (NIH/3T3) were also used.
(§2) L5178Y mouse T-lymphoma cells (ECACC catalog no. 87111908, US FDA, Silver Spring, MD, USA) were transfected with the pHa MDR1/A retrovirus as previously reported. The ABCB1 (P-gp) overexpressing cells were selected by culturing the infected cells with 60 ng/mL of colchicine (Sigma-Aldrich Chemie GmbH, Steinheim, Germany) to preserve the MDR phenotype. L5178Y (parental, PAR) mouse T-cell lymphoma cells and the human ABCB1-transfected subline were cultured in McCoy’s 5A supplemented with 10% heat-inactivated horse serum, 100 U/L L-glutamine, and 100 mg/L penicillin-streptomycin mixture, all obtained from Sigma-Aldrich. The mouse embryonic fibroblast (NIH 3T3) cell line was purchased from ATCC (CRL-1658) and was cultured in DMEM medium supplemented with 10% fetal bovine serum. These adherent cells were detached using 0.25% trypsin and 0.02% EDTA for 5 min at 37 °C. Before the antiproliferative assay using NIH 3T3 cell line, the cells were seeded in untreated 96-well flat bottomed microtiter plates, following a 4 h incubation period in a humidified atmosphere (5% CO2, 95% air) at 37 °C.
The assay was performed according to the previously applied experimental settings.

In data set [2] the test system is human ABCB1-transfected L5178Y mouse lymphoma cells. As to the kind of experiment: Checkerboard combination assay with doxorubicin. Also on record: key to CI at ED50 (combination index): CI <1 synergy, =1 additive, >1 antagonism. It counts as cell-based. The following applies: MDR cells; for CI at ED50 (combination index): best ratio. Here is the method:
The in vitro interactions between the compounds and the well-known antitumor drug and P-gp substrate, doxorubicin, were evaluated in a combination chemotherapy model on human ABCB1-transfected mouse T-lymphoma cells. The nature of drug–drug interactions was assessed by determination of the combination index (CI) using the Chou and Talalay method (Figure 1), and therefore evaluated as synergistic (CI < 1), additive (CI = 1), or antagonistic (CI > 1).
Doxorubicin (2 mg/mL, Teva Pharmaceuticals, Budapest, Hungary) was serially diluted horizontally in 100 µL as previously described, starting with 8.6 µM. The resistance modifier was subsequently diluted vertically in 50 µL; the starting concentration was determined based on the IC50. […] The checkerboard plates were kept for 72 h at 37 °C in a CO2 incubator, and at the end of the incubation period, the cell growth was determined by MTT staining method, as described earlier. Drug interactions were evaluated using Calcusyn software. Each dose–response curve (for individual agents as well as combinations) was fit to a linear model using the median effect equation in order to obtain the median effect value (corresponding to the IC50) and slope (m). The goodness-of-fit was assessed using the linear correlation coefficient, r, and only data from analysis with r > 0.90 were presented. The extent of interaction between drugs was expressed using the combination index, in which a CI value close to 1 indicates additivity, while a CI < 1 is defined as synergy and a CI > 1 as antagonism.

The test system of data set [3] is human ABCB1-gene transfected L5178Y subline (MDR). The following applies: for RR (relative resistance ratio) = IC50MDR/IC50PAR: RR ≤ 0.5 means CS effect.
In data set [4] the test system is mouse embryonic fibroblasts (NIH/3T3). As to the kind of experiment: MTT antiproliferative assay, non-cancer cells. To be noted: for SI C/B (Selectivity Index): IC50 NIH/3T3 / IC50 MDR; for SI C/A (Selectivity Index): IC50 NIH/3T3 / IC50 PAR; for IC50: NIH3T3, non-cancer mouse embryonic fibroblasts, MTT, read-out: IC50 NIH/3T3 (C). It counts as cell-based. Here is the method:
as §1
In addition, the antiproliferative activity of the compounds was also evaluated on non-cancerous mouse embryonic fibroblast cells (NIH/3T3), whose values were compared with those of PAR and MDR cells by evaluation of the selective index (SI) values. […] The highest selective index values (SIC/A = 9.39; SIC/B = 10.79) were found for the derivative bearing the trimethoxyphenyl substituent (17).
as §2
(Formazan colour is commonly taken as a measure of viable cells.)

Each structure is given as a SMILES string.

In data set [1], `CCC1CN(C)C2Cc3c([nH]c4ccccc34)C(=NN=Cc3c(O)ccc4ccccc34)CC1C2C(=O)OC` (stereo not shown) [Compound 19, 3-[((2″-hydroxy-1″naphthalenyl)methylene)hydrazineylidene]dregamine] returned an IC50 of 12.9 ± 0.35 µM. Further, in data set [2], the Interaction result was “Strong Synergism” and the “CI at ED50 (combination index)” value was 0.222. Also, in data set [3], the IC50 was 12.9 ± 0.35 µM and the “RR (relative resistance ratio) = IC50MDR/IC50PAR” value is recorded as 1.00. In data set [4], the “SI C/B (Selectivity Index)” value was 1.35, the “SI C/A (Selectivity Index)” value was found to be 1.35 and the IC50 turned out to be 17.5 ± 1.03 µM.

In data set [1], `CCC1CN(C)C2Cc3c([nH]c4ccccc34)C(=NN=Cc3c[nH]c4cc(Br)ccc34)CC1C2C(=O)OC` (stereo not shown) [Compound 21, 3-[((6-bromo-1H-indol-3-yl)methylene)hydrazineylidene]dregamine] showed an IC50 of 13.62 ± 0.03 µM. Moreover, in data set [2], the Interaction result is given as “Synergism” and the “CI at ED50 (combination index)” value is given as 0.445. For the same compound, in data set [3], the IC50 came out at 12.9 ± 1.57 µM and the “RR (relative resistance ratio) = IC50MDR/IC50PAR” value is on record as 0.95. For the same compound, in data set [4], the “SI C/B (Selectivity Index)” value was determined as 1.14, the “SI C/A (Selectivity Index)” value is 1.08 and the IC50 was determined as 14.8 ± 2.3 µM.

In data set [1], `CCCCCNC(=O)NN=C1CC2C(CC)CN(C)C(Cc3c1[nH]c1ccccc31)C2C(=O)OC` (stereo not shown) [Compound 22] gave an IC50 of 5.43 ± 0.38 µM. In data set [2], the Interaction result is “Strong Synergism” and the “CI at ED50 (combination index)” value was determined as 0.219. Further, in data set [3], the IC50 was 4.28 ± 0.25 µM and the “RR (relative resistance ratio) = IC50MDR/IC50PAR” value was 0.79. Moreover, in data set [4], the “SI C/B (Selectivity Index)” value was found to be 6.24, the “SI C/A (Selectivity Index)” value worked out at 4.92 and the IC50 is 26.7 ± 0.63 µM.

For `CCC1CN(C)C2Cc3c([nH]c4ccccc34)C(=NNC(=O)NC(C)(C)C)CC1C2C(=O)OC` (stereo not shown) [Compound 23], the IC50 in data set [1] is 26.3 ± 0.5 µM. Moreover, in data set [2], the Interaction result is on record as “Strong Synergism” and the “CI at ED50 (combination index)” value came to 0.163. The IC50 in data set [3] came out at 12.3 ± 1.8 µM. In addition, in data set [4], the “SI C/B (Selectivity Index)” value is above 8.11, the “SI C/A (Selectivity Index)” value is reported as above 3.81 and the IC50 is above 100 µM.

`CCC1CN(C)C2Cc3c([nH]c4ccccc34)C(=NNC(=O)NC3CCCCC3)CC1C2C(=O)OC` (stereo not shown) [Compound 24] yielded an IC50 in data set [1] of 12.85 ± 0.12 µM. In data set [2], the Interaction result is “Synergism” and the “CI at ED50 (combination index)” value turned out to be 0.301. Also, in data set [3], the IC50 was 5.69 ± 0.71 µM. Also, in data set [4], the “SI C/B (Selectivity Index)” value was 4.68, the “SI C/A (Selectivity Index)” value came to 2.07 and the IC50 stood at 26.6 ± 0.31 µM.

`CCC1CN(C)C2Cc3c([nH]c4ccccc34)C(=NNC(=O)Nc3ccccc3)CC1C2C(=O)OC` (stereo not shown) [Compound 25]: the IC50 in data set [1] amounted to 12.95 ± 0.04 µM. In addition, in data set [2], the Interaction result is given as “Synergism” and the “CI at ED50 (combination index)” value was determined as 0.345. Also, in data set [3], the IC50 was 10.8 ± 0.71 µM and the “RR (relative resistance ratio) = IC50MDR/IC50PAR” value was 0.83. Moreover, in data set [4], the “SI C/B (Selectivity Index)” value is given as 2.56, the “SI C/A (Selectivity Index)” value is 2.13 and the IC50 was found to be 27.6 ± 0.81 µM.

With `CCC1CN(C)C2Cc3c([nH]c4ccccc34)C(=NNC(=O)Nc3ccc(C)cc3)CC1C2C(=O)OC` (stereo not shown) [Compound 26], in data set [1], the IC50 stood at 9.41 ± 0.13 µM. In data set [2], the Interaction entry was “Synergism” and the “CI at ED50 (combination index)” value is recorded as 0.36. Besides, in data set [3], the IC50 stood at 8.22 ± 1.1 µM and the “RR (relative resistance ratio) = IC50MDR/IC50PAR” value was 0.87. Further, in data set [4], the “SI C/B (Selectivity Index)” value came to 3.15, the “SI C/A (Selectivity Index)” value is listed as 2.75 and the IC50 is 25.9 ± 0.81 µM.

As for `CCC1CN(C)C2Cc3c([nH]c4ccccc34)C(=NNC(=O)Nc3ccc(OC)cc3)CC1C2C(=O)OC` (stereo not shown) [Compound 27, 3-[2″-((4‴-methoxyphenyl)carbamoyl)hydrazineylidene]dregamine], the IC50 in data set [1] worked out at 6.88 ± 0.35 µM. Besides, in data set [2], the Interaction entry is reported as “Strong Synergism” and the “CI at ED50 (combination index)” value is 0.225. In data set [3], the IC50 was determined as 6.37 ± 0.83 µM and the “RR (relative resistance ratio) = IC50MDR/IC50PAR” value is reported as 0.92. Also, in data set [4], the “SI C/B (Selectivity Index)” value amounted to 6.32, the “SI C/A (Selectivity Index)” value is reported as 5.84 and the IC50 amounted to 40.2 ± 3.49 µM.

`CCC1CN(C)C2Cc3c([nH]c4ccccc34)C(=NNC(=O)Nc3ccc(Cl)cc3)CC1C2C(=O)OC` (stereo not shown) [Compound 28, 3-[2″-((4‴-chlorophenyl)carbamoyl)hydrazineylidene]dregamine] returned an IC50 in data set [1] of 6.22 ± 0.59 µM. Besides, in data set [2], the Interaction result is recorded as “Strong Synergism” and the “CI at ED50 (combination index)” value came out at 0.158. In data set [3], the IC50 worked out at 5.21 ± 0.09 µM and the “RR (relative resistance ratio) = IC50MDR/IC50PAR” value was determined as 0.84. Besides, in data set [4], the “SI C/B (Selectivity Index)” value stood at 2.45, the “SI C/A (Selectivity Index)” value is 2.06 and the IC50 was determined as 12.8 ± 0.95 µM.

For `CCC1CN(C)C2Cc3c([nH]c4ccccc34)C(=NNC(=O)Nc3ccc([N+](=O)[O-])cc3)CC1C2C(=O)OC` (stereo not shown) [Compound 30, 3-[2″-((4‴-nitrophenyl)carbamoyl)hydrazineylidene]dregamine], the IC50 in data set [1] was 6.04 ± 0.36 µM. Besides, in data set [2], the Interaction result is reported as “Synergism” and the “CI at ED50 (combination index)” value is on record as 0.423. In data set [3], the IC50 worked out at 4.83 ± 0.05 µM and the “RR (relative resistance ratio) = IC50MDR/IC50PAR” value stood at 0.80. In data set [4], the “SI C/B (Selectivity Index)” value came to 2.90, the “SI C/A (Selectivity Index)” value came to 2.32 and the IC50 came out at 14 ± 0.92 µM.

For `CCC1CN(C)C2Cc3c([nH]c4ccccc34)C(=NNC(=O)Nc3ccc(C(F)(F)F)cc3)CC1C2C(=O)OC` (stereo not shown) [Compound 31, 3-[2″-((4‴-(trifluoromethyl)phenyl)carbamoyl)hydrazineylidene]dregamine], the IC50 in data set [1] came out at 6.97 ± 0.12 µM. In data set [2], the Interaction entry is “Strong Synergism” and the “CI at ED50 (combination index)” value was 0.296. Also, in data set [3], the IC50 stood at 6.48 ± 0.25 µM and the “RR (relative resistance ratio) = IC50MDR/IC50PAR” value is reported as 0.93. In addition, in data set [4], the “SI C/B (Selectivity Index)” value worked out at 1.03, the “SI C/A (Selectivity Index)” value turned out to be 0.96 and the IC50 was determined as 6.7 ± 0.06 µM.

In the case of `CCC1CN(C)C2Cc3c([nH]c4ccccc34)C(=NNC(=O)NCCCc3ccccc3)CC1C2C(=O)OC` (stereo not shown) [Compound 32, 3-[2″-((3-phenylpropyl)carbamoyl)hydrazineylidene]dregamine], in data set [1], the IC50 was 6.82 ± 0.64 µM. In data set [2], the Interaction entry is recorded as “Synergism” and the “CI at ED50 (combination index)” value is given as 0.384. Besides, in data set [3], the IC50 was 4.46 ± 1.38 µM and the “RR (relative resistance ratio) = IC50MDR/IC50PAR” value is on record as 0.65. For the same compound, in data set [4], the “SI C/B (Selectivity Index)” value came to 2.13, the “SI C/A (Selectivity Index)” value is listed as 1.39 and the IC50 is 9.51 ± 0.52 µM.
